{"source": "paper PMC11881035", "about": "“^68Ga-Labeled Glycopeptides as Effective Tools for Liver Function Imaging” (Molecular Pharmaceutics, 2025)", "test_system": "healthy male C57BL6 mouse", "assay": "PET/MR imaging in C57BL6 mice, time activity curves", "type": "in vivo", "method": "The ^68Ge/^68Ga generator, devices for analytical HPLC, semipreparative HPLC, mass spectrometry, radio-thin layer chromatography, gamma counter and animal models for biodistribution and imaging studies including the image reconstruction procedures were the same as described before.[22] Stability assays in PBS and human blood serum, protein binding as well as determination of log D values followed established protocols.[25] Binding affinities (IC50) of selected ligands were determined in an isolated receptor-based assay according to a previously published procedure with minor modifications.[22] Dilutions of nonradioactive complexes were made with PBS + 0.1% BSA (10^–5–10^–12 M). Preparation of [^125I]I-Asialoorosomucoid which serves as the radioactive standard ligand has been published recently.[21]\nAnimal experiments were performed in accordance with the Austrian animal experiments law (BGBl. I Nr. 114/2012) and the institution’s animal welfare standards as approved by the Austrian Federal Ministry of Education, Science and Research (BMBWF, 2022–0.311.708). Imaging experiments were conducted at Werner Siemens Imaging Center (Tübingen, Germany) according to the German animal welfare act as approved by the local authorities (R5/19 G, R09/21 G). […]", "note": "Where a SMILES comes first, the peptide text is derived from it. The star is where a group is joined. X1 = O=C(CCCCc1cn([C@@H]2O[C@H](CO)[C@H](O)[C@H](O)[C@H]2O)nn1)*; NODAGA = O=C(O)CN1CCN(CC(=O)O)CCN(C(CCC(=O)*)C(=O)O)CC1; GABA = NCCCC(=O)O"}
{"smiles": "NC(=O)CNC(=O)CNC(=O)[C@H](CCCCNC(=O)CCCCc1cn([C@@H]2O[C@H](CO)[C@H](O)[C@H](O)[C@H]2O)nn1)NC(=O)CNC(=O)CNC(=O)[C@H](CCCCNC(=O)CCCCc1cn([C@@H]2O[C@H](CO)[C@H](O)[C@H](O)[C@H]2O)nn1)NC(=O)CNC(=O)CNC(=O)[C@H](CCCCNC(=O)CCCCc1cn([C@@H]2O[C@H](CO)[C@H](O)[C@H](O)[C@H]2O)nn1)NC(=O)CNC(=O)CNC(=O)[C@H](CCCCNC(=O)CCCCc1cn([C@@H]2O[C@H](CO)[C@H](O)[C@H](O)[C@H]2O)nn1)NC(=O)CNC(=O)CNC(=O)[C@H](CCCCNC(=O)CCCCc1cn([C@@H]2O[C@H](CO)[C@H](O)[C@H](O)[C@H]2O)nn1)NC(=O)CNC(=O)CNC(=O)[C@H](CCCCNC(=O)CCCCc1cn([C@@H]2O[C@H](CO)[C@H](O)[C@H](O)[C@H]2O)nn1)NC(=O)CNC(=O)CNC(=O)[C@H](CCCCNC(=O)CCCCc1cn([C@@H]2O[C@H](CO)[C@H](O)[C@H](O)[C@H]2O)nn1)NC(=O)CNC(=O)CNC(=O)[C@H](CCCCNC(=O)CCCCc1cn([C@@H]2O[C@H](CO)[C@H](O)[C@H](O)[C@H]2O)nn1)NC(=O)CNC(=O)CNC(=O)[C@H](CCCCNC(=O)CCCCc1cn([C@@H]2O[C@H](CO)[C@H](O)[C@H](O)[C@H]2O)nn1)NC(=O)CCCNC(=O)CCC(C(=O)O)N1CCN(CC(=O)O)CCN(CC(=O)O)CC1", "note": "(some centres unmarked) [[^68Ga]Ga-NODAGA-NonaLysan, metal not drawn] ({NODAGA-GABA}-K(X1)GGK(X1)GGK(X1)GGK(X1)GGK(X1)GGK(X1)GGK(X1)GGK(X1)GGK(X1)GG-NH2)", "values": [{"measurement": "time of fast liver accumulation", "setting": "PET/MR, C57BL6 mouse, 1 MBq (100 pmol)", "result": "≤ 2", "unit": "min"}, {"measurement": "time of rapid tracer accumulation in liver (time-activity curves)", "setting": "followed by stable retention", "result": "≤ 5", "unit": "min"}]}
